Data as given in the Kinase Knowledgebase extract (Sharma et al. 2016).

Columns and labels:
CDK2 (human) = CDK2 (human) (UniProt P24941); experiment: Enzyme Assay
ROCK2 (human) = ROCK2 (human) (UniProt O75116); experiment: Enzyme Assay
Chain of ROCK2 (human) (O75116 whole entry, looked up): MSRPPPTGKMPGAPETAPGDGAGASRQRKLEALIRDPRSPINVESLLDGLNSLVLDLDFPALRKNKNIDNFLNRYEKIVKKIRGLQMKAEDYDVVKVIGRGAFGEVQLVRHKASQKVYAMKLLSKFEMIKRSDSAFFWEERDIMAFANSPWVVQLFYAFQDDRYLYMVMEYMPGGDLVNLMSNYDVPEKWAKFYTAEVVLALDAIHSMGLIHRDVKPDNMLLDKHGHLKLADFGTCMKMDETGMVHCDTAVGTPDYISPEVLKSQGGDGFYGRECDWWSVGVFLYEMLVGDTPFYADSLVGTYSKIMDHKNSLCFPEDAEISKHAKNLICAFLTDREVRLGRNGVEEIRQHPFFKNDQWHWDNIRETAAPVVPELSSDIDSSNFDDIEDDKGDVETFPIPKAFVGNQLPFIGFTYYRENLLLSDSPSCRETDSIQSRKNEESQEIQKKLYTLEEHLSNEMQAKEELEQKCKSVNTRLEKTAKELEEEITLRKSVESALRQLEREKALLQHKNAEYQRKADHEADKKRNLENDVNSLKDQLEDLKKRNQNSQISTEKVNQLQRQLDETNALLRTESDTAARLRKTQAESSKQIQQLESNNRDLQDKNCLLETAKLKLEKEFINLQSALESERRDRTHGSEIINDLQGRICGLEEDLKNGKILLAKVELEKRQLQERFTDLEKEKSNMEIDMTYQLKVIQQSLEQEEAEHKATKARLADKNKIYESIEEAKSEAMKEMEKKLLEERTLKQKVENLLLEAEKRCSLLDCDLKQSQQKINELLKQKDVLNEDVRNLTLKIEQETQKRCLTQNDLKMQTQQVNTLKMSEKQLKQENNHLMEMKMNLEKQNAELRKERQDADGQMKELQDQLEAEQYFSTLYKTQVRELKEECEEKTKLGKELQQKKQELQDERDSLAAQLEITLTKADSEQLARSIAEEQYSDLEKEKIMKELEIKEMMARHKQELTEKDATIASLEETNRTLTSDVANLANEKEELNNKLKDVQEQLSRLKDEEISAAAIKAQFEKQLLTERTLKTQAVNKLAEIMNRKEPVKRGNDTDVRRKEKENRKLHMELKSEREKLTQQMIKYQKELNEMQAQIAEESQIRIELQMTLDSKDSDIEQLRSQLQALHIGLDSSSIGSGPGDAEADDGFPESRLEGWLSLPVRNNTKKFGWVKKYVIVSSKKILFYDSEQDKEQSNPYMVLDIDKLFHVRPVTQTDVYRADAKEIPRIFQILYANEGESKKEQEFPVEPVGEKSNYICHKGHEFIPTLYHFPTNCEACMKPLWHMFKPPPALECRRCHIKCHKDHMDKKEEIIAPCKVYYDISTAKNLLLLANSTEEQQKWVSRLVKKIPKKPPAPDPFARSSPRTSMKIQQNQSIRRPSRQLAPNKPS

Row | SMILES | Ki (CDK2 (human)) [nM] | Ki (ROCK2 (human)) [nM]
1 | N#Cc1ccc2[nH]c(O)c(-c3ccc(CN4CCOCC4)cn3)c2c1 | 1000 | > 6310
2 | O=C(O)c1ccccc1Nc1ncnc(Nc2ccc3cn[nH]c3c2)n1 | 316 | > 5010
3 | CCCCNc1cc(-c2c[nH]c3ncccc23)ncn1 | 200 | 20
4 | Nc1n[nH]c2ccc(-c3cc(Cc4ccccc4)no3)cc12 | 200 | 25.1
5 | Cc1sc2[nH]c(=O)n3nc(-c4ccncc4)nc3c2c1C | – | 3980
6 | COc1ccccc1C(=O)Nc1n[nH]c2ccc(-c3cn(Cc4ccccc4)nn3)cc12 | 251 | > 7940
7 | NC(=O)c1ccc(-c2nc(-c3ccc4c(c3)OCO4)c(-c3ccccn3)[nH]2)cc1 | – | > 3980
8 | Oc1ccc(-c2nc(-c3ccc(F)cc3)c(-c3ccncc3)[nH]2)cc1 | – | > 3980
9 | CCn1c(-c2nonc2N)nc2cnc(Oc3cccc(NC(=O)c4ccc(OCCN5CCOCC5)cc4)c3)cc21 | 794 | –
10 | O=[N+]([O-])c1cccc(-c2nnc3ccc(N4CCCCC4)nn23)c1 | 631 | > 7940
11 | CCOC(=O)c1c(NC(=O)C2C(C)(C)C2(C)C)sc2cnccc12 | 1000 | –
12 | O=C(NCc1ccccc1)c1c[nH]n2c(=O)cc(-c3ccncc3)nc12 | 158 | > 7940
13 | Cn1cc(-c2ccccc2)c2nc(-c3ccncc3)cc(=O)n21 | – | 3160
14 | c1cnc2[nH]cc(-c3ccnc(NCC4CCCCC4)n3)c2c1 | 3.98 | 6.31
15 | CCOC(=O)c1c[nH]n2c(=O)cc(-c3ccncc3)nc12 | – | 2000
16 | Cc1cccc(CNc2cc(-c3c[nH]c4ncccc34)cc(Cl)n2)c1C | 200 | 31.6
17 | Cn1cncc1C(OCc1c(-c2ccc(OC(F)(F)F)cc2)cc(C#N)c(=O)n1C)c1ccc(C#N)cc1 (stereo not given) | – | > 7940
18 | NC(=O)c1ccc(-c2ccnc(N)n2)cc1N1CCCCC1 | 1260 | 1580
19 | c1ccc(Cn2cc(-c3ccc4[nH]nc(-c5cn(Cc6ccccc6)nn5)c4c3)nn2)cc1 | 5.01 | 126
20 | NNc1cc(N2CCOCC2)nc(OCCc2ccccn2)n1 | – | > 5010
21 | O=C1Nc2ccccc2Nc2cc(-c3ccncc3)ccc21 | 1000 | 316
22 | FC(F)(F)c1ccccc1CNc1nccc(-c2c[nH]c3ncccc23)n1 | 5.01 | –
23 | CC(C)(C)Oc1cc(-c2ccncc2)cc2[nH]nc(N)c12 | 126 | 50.1
24 | Nc1ncnc2c1c(-c1cnc3[nH]ccc3c1)nn2C1CCCC1 | – | 39.8
25 | CS(=O)(=O)Nc1ccccc1-c1ccc2c(c1)Nc1ccccc1NC2=O | 6310 | –

Row | SMILES | Ki (CDK2 (human)) [nM] | Ki (ROCK2 (human)) [nM]
26 | CCCCNc1c(-c2ccc3[nH]ncc3c2)nc2ncccn12 | 398 | 63.1
27 | Clc1cc(NC2CCCCC2)nc(-c2c[nH]c3ncccc23)n1 | – | > 316
28 | CCCn1c(=O)c2[nH]c(-c3cnn(Cc4cccc(C(F)(F)F)c4)c3)nc2n(CC)c1=O | 5010 | –
29 | OCCCCNc1cc(-c2c[nH]c3ncccc23)cc(Cl)n1 | 126 | 15.8
30 | Fc1cccc(-c2c[nH]c3ncccc23)c1 | 1260 | 316
31 | NC(=O)c1ccc2c(ccn2-c2cccc(Cl)c2)c1 | – | 2510
32 | CNCCOc1cncc(-c2ccc3[nH]nc(C)c3c2)c1 | 501 | 20
33 | Nc1noc2cccc(-c3cccc(O)c3)c12 | – | 251
34 | COc1ccc(C(=O)Nc2n[nH]c3ccc(-c4cn(Cc5ccccc5)nn4)cc23)cc1OC | 12.6 | 794
35 | CN(C)c1ccc(-c2c(-c3ccc4[nH]nc(N)c4c3)nnn2Cc2ccccc2)cc1 | 126 | 20
36 | c1ccc(Cn2nnc(-c3ccc4[nH]ncc4c3)c2-c2ccccc2)cc1 | 63.1 | –
37 | CN(C)C1CCC(Nc2nc(Cl)cc(-c3c[nH]c4ncccc34)n2)CC1 (stereo not given) | 25.1 | 2.51
38 | c1ccc(-c2n[nH]cc2-c2ccncc2)cc1 | 12600 | –
39 | NC(=O)c1ccc(-c2ccncc2)cc1NCc1cccc(F)c1 | 3160 | 5010
40 | Cc1c(C=O)c(O)n2c(nc3ccccc32)c1C#N | – | > 7940
41 | CN(C)CCCOc1cc(-c2ccncc2)cc2[nH]nc(N)c12 | 3160 | 251
42 | O=C1NC(=O)C(c2c[nH]c3ccccc23)=C1c1nc(N2CCNCC2)nc2ccccc12 | – | > 3980
43 | CCNC(=O)c1[nH]nc(-c2cc(Cl)c(O)cc2O)c1-c1ccc(OC)cc1 | 6310 | 2510
44 | NC1CCCCC1Nc1nccc(Nc2ccccc2C(=O)O)n1 (stereo not given) | – | > 7940
45 | OCCNc1cc(-c2c[nH]c3ncccc23)cc(Cl)n1 | 316 | 20
46 | CC(C)(CO)CNc1nccc(-c2c(-c3ccc(F)cc3)nc3c(CC4CC4)nccn23)n1 | – | > 7940
47 | NC1CCCCC1Nc1nccc(-c2c[nH]c3ncccc23)n1 (stereo not given) | 12.6 | –
48 | CC(C)(O)CNc1cc(-c2c[nH]c3ncccc23)cc(Cl)n1 | 251 | 15.8
49 | CCCCCCCCCCCCOc1ccc(NC(=N)N)cc1NC(=N)N | 5010 | 3160
50 | CC(C)(CO)CCCNc1cc(-c2c[nH]c3ncccc23)cc(Cl)n1 | 100 | 10

Row | SMILES | Ki (CDK2 (human)) [nM] | Ki (ROCK2 (human)) [nM]
51 | NC(=O)c1cc(-c2ccnc(N)n2)[nH]c1-c1ccc(Cl)cc1Cl | – | 316
52 | COCCN(CCOC)c1cc(-c2c[nH]c3ncccc23)cc(Cl)n1 | 2000 | 39.8
53 | NC(=O)c1ccc(Nc2ncnc3[nH]cc(-c4ccccc4)c23)cc1 | 501 | 251
54 | Cc1n[nH]c2ccc(-c3cncc(OCCN(C)S(C)(=O)=O)c3)cc12 | 501 | 100
55 | CN(Cc1ccccc1)c1cc(-c2c[nH]c3ncccc23)cc(Cl)n1 | 31.6 | 20
56 | CCCCOc1cc(-c2ccncc2)cc2[nH]nc(N)c12 | 1000 | 126
57 | CCCCC(=O)Nc1cc(-c2c[nH]c3ncccc23)cc(Cl)n1 | – | 158
58 | Cc1cc(=O)n2[nH]cc(C(=O)NCc3ccccc3)c2n1 | – | 2510
59 | COCC(C)Nc1cc(-c2c[nH]c3ncccc23)cc(Cl)n1 (stereo not given) | 158 | 7.94
60 | CN(c1ccccc1-c1ccc2c(c1)Nc1ccccc1NC2=O)S(C)(=O)=O | 2000 | –
61 | O=C1Nc2ccccc2Nc2cc(-c3ccncc3Cl)ccc21 | 501 | 631
62 | Cc1ccccc1-c1c(-c2ccc3[nH]nc(C)c3c2)nnn1Cc1ccccc1 | 3.98 | –
63 | O=C1Nc2ccccc2Nc2cc(-c3ccncc3F)ccc21 | 398 | 126
64 | Fc1ccc2c(c1)-c1n[nH]cc1CS2 | 20000 | –
65 | O=C(Nc1ccccc1)Nc1nccs1 | 20000 | –
66 | O=C(O)c1ccccc1Nc1ccnc(NCc2cccc(O)c2)n1 | – | > 7940
67 | Cc1cc(Nc2cc(N3CCN(C)CC3)nc(Sc3ccc(NC(=O)C4CC4)cc3)n2)[nH]n1 | – | > 3980
68 | COc1cc2c(cc1F)C(c1ccccc1Cl)=Nc1c(n[nH]c1C)N2 | – | > 7940
69 | O=C(Nc1cccc(C(F)(F)F)n1)Nc1ccnc2ccc(F)cc12 | – | > 3980
70 | Cc1cccc(NC(=O)Nc2ccc3c(c2)CCc2sc4ncnc(N)c4c2-3)c1 | – | 79.4
71 | O=C1CN=C(c2cccc(Cl)c2)c2c(sc3c2CCCC3)N1 | 7940 | –
72 | O=c1cc(-c2cccc(F)c2)[nH]c2c(-c3ccc(F)cc3)cnn12 | – | > 7940
73 | CS(=O)(=O)N(Cc1ccc2[nH]c(=O)c3cccn3c2c1)C1CC1 | – | > 7940
74 | NC(=O)c1ccccc1Nc1nc(Nc2ccccc2)ncc1C(F)(F)F | – | 501
75 | O=c1cc(-c2ccc(F)cc2)[nH]c2c(-c3ccc(F)cc3)cnn12 | – | > 7940
